Measurements published in US20230056935A1, “Compound, Antimicrobial Deodorant Composition Comprising Same, and Method for Producing Same” (LG Chem, Ltd., priority 2020, published 2023).

Legend:
[1] = Deodorizing property evaluation (SPME, GC/MS peak area); settings: total 80 mg
Procedure: To a test solution including the compound in 1 phr to 20 phr with respect to a total weight of 80 mg of a super absorbent polymer and the compound, 20 mL of a malodorous solution is introduced, isovaleraldehyde is adsorbed using a solid-phase microextraction method, and a GC/MS peak area of the adsorbed isovaleraldehyde is analyzed through a GC/MS analysis. For a control solution prepared in the same manner except that the compound is not introduced in the test solution, a GC/MS peak area of isovaleraldehyde is analyzed in the same manner, and, using the GC/MS peak area values of the test solution and the control solution, a deodorization rate is calculated according to the following Mathematical Formula 2.
Compound 1 prepared in Preparation Example 1 was introduced to a vial in a content as described in the following Table 2, and after introducing a super absorbent polymer (LG Chem., GS-301N) thereto so that a total content of the super absorbent polymer and Compound 1 becomes 80 mg, a malodorous solution (20 mL) was introduced thereto to prepare a test solution. As the malodorous solution, a solution in which diacetyl (242 ug/mL), isovaleraldehyde (49 ug/mL), dimethyl disulfide (30 ug/mL), dimethyl trisulfide (26 ug/mL) and p-cresol (2508 ug/mL) are mixed was 1/1000 diluted using an aqueous sodium chloride solution (0.9% by weight) and used. Volatile substances generated in the test solution was adsorbed using a solid-phase microextraction method (SPME), and through a GC/MS analysis, GC/MS peak areas of the adsorbed malodorous substances (diacetyl, isovaleraldehyde, dimethyl disulfide, dimethyl trisulfide and p-cresol) were each analyzed. For a control solution prepared in the same manner except that Compound 1 was not included, peak areas of the malodorous substances were analyzed in the same manner, and deodorization rates thereof were each calculated according to the following Mathematical Formula 2.
(Cs: GC/MS peak areas of malodorous substances test solution, C0: GC/MS peak areas of malodorous substances of control solution)

[2] = tested on: Proteus mirabilis (ATCC 29906); assay: Antibacterial property evaluation, bacterial growth inhibition (absorbance at 600 nm); type: cell-based; settings: 16 hours at 35° C.; for Absorbance: 600 nm
Procedure: (§1) After introducing 1 mg to 200 mg of the compound to a nutrient broth culture medium (25 ml) inoculated with bacteria 3000±300 CFU/ml, the result is incubated for 16 hours at 35° C. in a shaking incubator to prepare a test culture medium. A control culture medium is prepared in the same manner except that the compound is not introduced in the test culture medium. For the test culture medium and the control culture medium, absorbance at a wavelength of 600 nm is measured using a UV-Vis spectrophotometer, and using the measured absorbance value, a bacterial growth inhibition rate (%) is calculated according to the following Mathematical Formula 1.
(§2) To a nutrient broth culture medium (25 ml) inoculated with Proteus mirabilis (ATCC 29906) or E. coli (ATCC 25922) 3000±300 CFU/ml, Compound 1 prepared in Preparation Example 1 was introduced in a content as described in the following Table 1, and the result was incubated for 16 hours at 35° C. in a shaking incubator to prepare a test culture medium. As a control, a control culture medium was prepared in the same manner except that the compound was not introduced in the test culture medium. For the test culture medium and the control culture medium, absorbance at a wavelength of 600 nm was measured using a UV-Vis spectrophotometer. Using the measurement results, a bacterial growth inhibition rate (%) was calculated according to the following Mathematical Formula 1.
(§3) (As: absorbance of test culture medium, A0: absorbance of control culture medium)

E. coli (ATCC 25922) = assay: as above; type: cell-based; settings: Escherichia coli, 16 hours at 35° C.; for Absorbance: 600 nm
Procedure: as §1, §2, §3

[3] = 1 phr of Compound 1 with super absorbent polymer
[4] = 2 phr of Compound 1 with super absorbent polymer
[5] = 5 phr of Compound 1 with super absorbent polymer
[6] = 8 phr of Compound 1 with super absorbent polymer
[7] = 10 phr of Compound 1 with super absorbent polymer
[8] = content 20 mg in 25 ml nutrient broth
[9] = content 50 mg in 25 ml nutrient broth
[10] = content 100 mg in 25 ml nutrient broth

C=CC(=O)OCCC1CCCCN1C(=O)OC(C)CC (stereo not shown) [Compound 1]
Deodorization rate (%) for Diacetyl [1, 3]: 79% | Deodorization rate (%) for Dimethyl Disulfide [1, 3]: 65% | Deodorization rate (%) for Dimethyl Trisulfide [1, 3]: 16% | Deodorization rate (%) for Isovaleraldehyde [1, 3]: 87% | Deodorization rate (%) for p-Cresol [1, 3]: 2% | Deodorization rate (%) for Diacetyl [1, 4]: 86% | Deodorization rate (%) for Dimethyl Disulfide [1, 4]: 76% | Deodorization rate (%) for Dimethyl Trisulfide [1, 4]: 27% | Deodorization rate (%) for Isovaleraldehyde [1, 4]: 92% | Deodorization rate (%) for p-Cresol [1, 4]: 20% | Deodorization rate (%) for Diacetyl [1, 5]: 91% | Deodorization rate (%) for Dimethyl Disulfide [1, 5]: 84% | Deodorization rate (%) for Dimethyl Trisulfide [1, 5]: 61% | Deodorization rate (%) for Isovaleraldehyde [1, 5]: 94% | Deodorization rate (%) for p-Cresol [1, 5]: 37% | Deodorization rate (%) for Diacetyl [1, 6]: 92% | Deodorization rate (%) for Dimethyl Disulfide [1, 6]: 88% | Deodorization rate (%) for Dimethyl Trisulfide [1, 6]: 72% | Deodorization rate (%) for Isovaleraldehyde [1, 6]: 95% | Deodorization rate (%) for p-Cresol [1, 6]: 46% | Deodorization rate (%) for Diacetyl [1, 7]: 93% | Deodorization rate (%) for Dimethyl Disulfide [1, 7]: 88% | Deodorization rate (%) for Dimethyl Trisulfide [1, 7]: 76% | Deodorization rate (%) for Isovaleraldehyde [1, 7]: 95% | Deodorization rate (%) for p-Cresol [1, 7]: 61% | Bacterial Growth Inhibition Rate (%) [2, 8]: 55.6% | Absorbance [2, 8]: 0.059 | Bacterial Growth Inhibition Rate (%) [2, 9]: 91.7% | Absorbance [2, 9]: 0.011 | Bacterial Growth Inhibition Rate (%) [2, 10]: 89.5% | Absorbance [2, 10]: 0.014 | Bacterial Growth Inhibition Rate (%) (E. coli (ATCC 25922); [8]): 62.9% | Absorbance (E. coli (ATCC 25922); [8]): 0.063 | Bacterial Growth Inhibition Rate (%) (E. coli (ATCC 25922); [9]): 92.4% | Absorbance (E. coli (ATCC 25922); [9]): 0.013 | Bacterial Growth Inhibition Rate (%) (E. coli (ATCC 25922); [10]): 88.8% | Absorbance (E. coli (ATCC 25922); [10]): 0.019
